{
  "source": "patent US11274324B2",
  "about": "“Engineering polyketide synthase in cyanobacteria” (The Regents of the University of California, priority 2019, dated 2022)",
  "key": {"[1]": {"test_system": "S. elongatus recombinant strain MatB F pfm (module IIA)", "experiment": "Bioconversion assay, MBE production at different theophylline concentrations", "type": "cell-based, Synechococcus elongatus", "procedure": "FIGS. 6A-6B show MBE biosynthesis by recombinant MatB F pfm and MatB B6 pfm cyanobacterial strains induced with different theophylline concentrations.\nThe two strains containing module IA (MatB) for methylmalonyl-CoA biosynthesis, modules IIA or IIB for T7 RNAP and Sfp expression, and module III for the Mas and accessory enzyme expression were analyzed. In addition, strains without the module III and a wild type strain were comprised as negative controls. For the bioconversion assays the strains were induced with theophylline 2 mM and 24 h later supplemented with 10 mM methylmalonate, 0.25 mM n-octanol and labeled with 2 μCi ^14C-acetate (58.9 mCi/mmol, PerkinElmer). After addition of the precursors the cultures were grown for 48 h, the in vivo synthesis of MBE was analyzed on total lipid extractions from each culture by TLC fractionation and autoradiography (FIGS. 3A-3B). Additional control bioconversion assays were carried out in the absence of either or both precursors, and labeled MBE synthesized by the E. coli strain RQ1 used as a standard (Menendez-Bravo et al. 2014). […]"}, "[2]": {"test_system": "theophylline dependent riboswitch B", "experiment": "Inducible T7 expression system, PT7-YFP reporter fluorescence", "type": "cell-based, S. elongatus", "conditions": "mutated PconII*", "procedure": "(§1) FIGS. 2A-2B show characterization of inducible T7 expression systems in S. elongatus at different theophylline concentrations. The expression of the T7RNAP was driven by a mutated PconII* and was translationally controlled by riboswitch B (FIG. 2A) or riboswitch F (FIG. 2B). YFP fluorescence served as an easily readable output. Three independent strains were analyzed for each construct and error bars indicate standard deviations of the replicates.\n(§2) To establish a functional and inducible T7RNAP based expression system for S. elongatus, devices were constructed where the transcription of the T7 RNA polymerase was driven by the conII promoter and its translation was controlled by either the theophylline dependent riboswitches B or F (Ma et al 2014). […] Thus, the potentiality of these regulatory devices when using a TRNAP expression system in S. elongatus was studied. Initially, the inventors constructed a reporter device in which the YFP reporter gene was driven by the PT7 and the T7RNAP expression was left under the control of a PconII-riboswitch (B or F). Both the T7RNAP expression systems and the reporter PT7-YFP were independently integrated at NS1 and NS2 of S. elongatus chromosome (Clerico et al 2007)."}, "[3]": {"test_system": "theophylline dependent riboswitch F", "experiment": "Inducible T7 expression system, PT7-YFP reporter fluorescence", "type": "cell-based, S. elongatus", "conditions": "mutated PconII*", "procedure": "as §1, §2"}, "[4]": {"test_system": "S. elongatus AMC2302 wild type", "experiment": "Cell toxicity analysis of precursors", "type": "cell-based, Synechococcus elongatus", "conditions": "final concentration of 1 mM; preliminary analyses, FIG. 12A", "procedure": "FIGS. 12A-12B show cell toxicity analysis to determine the optimal concentration of precursors. FIG. 12A is an image showing cell growth after addition of substrate. Methylmalonate (me-malonate) and propionate were added to S. elongatus AMC2302 wild type at different concentrations: 0, 1, 5, 10, 15, and 20 mM. Each column is a duplicate of the experiment. FIG. 12B is an image showing cell growth after addition of substrate. n-octanol was added to S. elongatus AMC2302 wild type at different concentrations: 0.125, 0.25, 0.5, 1, 2, and 0 mM. Each column is a duplicate (FIG. 12A), or triplicate of the experiment (FIG. 12B).\nWhile module I was constitutively expressed from Peonn (Elledge and Davis et al. 1989; Taton et al. 2014), the expression and activation of module III depended on the expression of the T7 RNAP and Sfp placed in downstream PconII and under the translational control of theophylline inducible riboswitches. The biosynthesis of methylmalonyl-CoA required methylmalonate (module IA) or propionate (module IC) as substrates, and the transesterification of the ACP-bound MBFA required an alcohol substrate (n-octanol) to produce MBE as the final product. Cell toxicity analysis with methylmalonate, propionate and n-octanol were carried out to determine the optimal concentration of these precursors. (FIG. 12). […]"}, "S. elongatus": {"test_system": "S. elongatus", "conditions": "at low concentrations; previously reported; cited from earlier work"}},
  "data": [
    {"smiles": "Cn1c(=O)c2[nH]cnc2n(C)c1=O", "note": "[theophylline]", "values": [
      {"measurement": "effect on cell viability", "setting": "[1]; 8 mM theophylline", "value": "detrimental to cell viability"},
      {"measurement": "theophylline concentration reaching high levels of MBE production", "setting": "[1]; module IIA, methylmalonate 10 mM, n-octanol 0.25 mM", "value": 4, "unit": "mM"},
      {"measurement": "concentration of theophylline needed to reach maximal fluorescence", "setting": "[2]", "value": 2, "unit": "mM"},
      {"measurement": "concentration of theophylline needed to reach maximal fluorescence", "setting": "[3]", "value": 1, "unit": "mM"}
    ]},
    {"smiles": "CCC(=O)O", "note": "[propionate]", "values": [
      {"measurement": "toxicity for S. elongatus", "setting": "[4]", "value": "not toxic"},
      {"measurement": "toxicity for S. elongatus", "setting": "S. elongatus", "value": "toxic"}
    ]}
  ]
}
